Test systems include HOP-62 NSCLC; EKVX NSCLC; OVCAR-5 ovarian; NCI-H460 lung; MOLT-4 leukemia; HL-60(TB) leukemia; SNB-75 CNS; RXF 393 renal; SK-MEL-2 melanoma; HCT-15 colon.
Test in all cases: growth of human tumour cells (NCI), 48 h

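These data come from cells grown in 96-well plates and exposed to compound for 48 hours at five concentrations. Here, GI50 denotes the concentration required for 50% inhibition of growth. TGI marks complete inhibition of growth.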 Where only a bound is given, the exact number is not on record here.

Take `Cc1cc2c(F)c(Oc3ncnn4cc(OC[C@@H](C)OC(=O)[C@H](C)N)c(C)c34)ccc2[nH]1`: the GI50 was 10.3 µM with HOP-62 NSCLC; 13.5 µM in the experiment with EKVX NSCLC; 14.9 µM with OVCAR-5 ovarian; 2.1 µM with NCI-H460 lung; 7.25 µM in the experiment with MOLT-4 leukemia; 7.2 µM in the experiment on HL-60(TB) leukemia. For the same molecule, the GI50 in the experiment on SNB-75 CNS is 9.42 µM; in the experiment with RXF 393 renal, 8.4 µM; with SK-MEL-2 melanoma, 19.9 µM; in the experiment with HCT-15 colon, 0.882 µM. In addition, the TGI with HOP-62 NSCLC amounted to 26.9 µM; in the experiment on EKVX NSCLC it was 26.9 µM; in the experiment with OVCAR-5 ovarian, 29.2 µM; in the experiment on NCI-H460 lung, 13.8 µM; in the experiment on MOLT-4 leukemia, 23.5 µM; with HL-60(TB) leukemia, 26.3 µM. Also, the TGI is 24.6 µM in the experiment with SNB-75 CNS, 22.5 µM in the experiment with RXF 393 renal, 35.3 µM in the experiment on SK-MEL-2 melanoma and 14 µM in the experiment on HCT-15 colon.
As for `CC1(C)N=C(N)N=C(N)N1c1cc(Cl)ccc1Cl`, the GI50 was more than 100 µM in the experiment with HOP-62 NSCLC; more than 100 µM in the experiment with EKVX NSCLC; more than 100 µM with OVCAR-5 ovarian; 60.6 µM in the experiment on NCI-H460 lung; more than 100 µM with MOLT-4 leukemia; 74.7 µM with HL-60(TB) leukemia. In addition, the GI50 in the experiment with SNB-75 CNS, in the experiment on RXF 393 renal, with SK-MEL-2 melanoma and in the experiment with HCT-15 colon was more than 100 µM in each case. Further, the TGI with HOP-62 NSCLC, in the experiment with EKVX NSCLC, with OVCAR-5 ovarian, in the experiment with NCI-H460 lung, with MOLT-4 leukemia and in the experiment with HL-60(TB) leukemia was more than 100 µM in each case. Besides, the TGI in the experiment with SNB-75 CNS, in the experiment with RXF 393 renal, with SK-MEL-2 melanoma and in the experiment with HCT-15 colon was more than 100 µM each time.

The record behind these values is PubChem BioAssay (NCI).
